Test results: patent US11312723B2, “Pyranopyrazole and pyrazolopyridine immunomodulators for treatment of autoimmune diseases” (The Rockefeller University, priority 2017, dated 2022)
Structures can show the parent of a compound that is named as a salt.

Experiments:
Human FXIIa = Human FXIIa (Homo sapiens (Human), UniProt P00748); assay: Factor XIIa (FXIIa) inhibitory activity, chromogenic substrate (Pefachrome XIIa) cleavage; assay type: biochemical; settings: 10 min pre-incubation, Pefachrome XIIa 400 μM
Human alpha-thrombin = Human alpha-thrombin (Homo sapiens (Human), UniProt P00734); assay: Thrombin counterscreen for selectivity, fluorogenic substrate cleavage; assay type: biochemical; settings: 10 min pre-incubation, Boc-Val-Pro-Arg-AMC 20 μM
Description: Counterscreens for Selectivity:
Thrombin. In a 96-well white opaque plate, 80 μl of assay buffer was added to each well. Test compounds were added, and serially diluted as above, to generate a concentration range of approximately 1-100 μM. Human alpha-thrombin (Enzyme Research Labs) was diluted in assay buffer to a final concentration of 12.5 nM. 80 μl of this enzyme solution was added to the assay wells. The enzyme/compound mixtures were incubated for 10 minutes at room temperature. Fluorogenic substrate (Boc-Val-Pro-Arg-7-amido-4-methylcoumarin; Sigma) was added to assay wells at a final concentration of 20 μM. The assay plate was spun for 1 minute at 1500 g and then read at 37° C. in a SpectraMax M2 plate reader (λex=380 nm and λem=460 nm). Activity was quantified as the rate of change in fluorescence, which corresponds to the rate of substrate cleavage. IC50 values were determined as the concentration of inhibitor that produced 50% of the rate of change of control wells without any inhibitor. For compounds with activity <1 μM, the assay was repeated with a lower concentration range, typically from 10-1000 nM.

Chain of Human FXIIa (P00748 373-615): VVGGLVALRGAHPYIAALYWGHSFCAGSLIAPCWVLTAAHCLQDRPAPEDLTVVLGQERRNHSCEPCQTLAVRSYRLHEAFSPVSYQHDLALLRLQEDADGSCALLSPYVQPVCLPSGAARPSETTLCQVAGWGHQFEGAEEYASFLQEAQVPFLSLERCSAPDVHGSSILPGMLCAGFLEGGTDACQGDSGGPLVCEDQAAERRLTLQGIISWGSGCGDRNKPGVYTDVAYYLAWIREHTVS
Chain of Human FXIIa (P00748 20-372 partner): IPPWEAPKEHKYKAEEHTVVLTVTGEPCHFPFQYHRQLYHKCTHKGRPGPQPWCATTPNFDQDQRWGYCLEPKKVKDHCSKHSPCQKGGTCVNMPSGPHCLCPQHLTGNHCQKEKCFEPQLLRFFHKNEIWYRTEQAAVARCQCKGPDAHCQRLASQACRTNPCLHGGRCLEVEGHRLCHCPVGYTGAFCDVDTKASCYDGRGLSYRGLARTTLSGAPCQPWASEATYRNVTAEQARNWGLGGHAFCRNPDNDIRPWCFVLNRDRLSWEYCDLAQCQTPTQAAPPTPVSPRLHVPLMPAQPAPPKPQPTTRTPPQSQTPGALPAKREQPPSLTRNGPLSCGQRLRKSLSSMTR

Row | IC50 (Human FXIIa) [nM] | IC50 (Human alpha-thrombin) [nM] | SMILES
1 | 50 | 64000 | CCCN1CCc2c(nn(C(=O)C3CCNc4ccc(F)cc43)c2N)C1 (stereo not drawn) [Example 149, (3-amino-6-propyl-4,5,6,7-tetrahydro-pyrazolo[3,4-c]pyridin-2-yl)(6-fluoro-1,2,3,4-tetrahydro-quinolin-4-yl)methanone]
2 | 80 | 95000 | Nc1c2c(nn1C(=O)[C@H]1CCNc3ccc(F)cc31)COCC2 (single isomer, unassigned) [Example 196, (S*)-(3-amino-4,5-dihydropyrano[3,4-c]pyrazol-2(7H)-yl)(6-fluoro-1,2,3,4-tetrahydro-quinolin-4-yl)methanone]
3 | 70 | > 90000 | Nc1c2c(nn1C(=O)[C@H]1CCNc3ccc(F)cc31)CNCC2 (single isomer, unassigned) [Example 146, (S*)-(3-amino-4,5,6,7-tetrahydro-pyrazolo[3,4-c]pyridin-2-yl)(6-fluoro-1,2,3,4-tetrahydro-quinolin-4-yl)methanone]
4 | 40 | > 70000 | CC(C)N1CCc2c(nn(C(=O)C3CCNc4ccc(F)cc43)c2N)C1 (stereo not drawn) [Example 151, Formic Acid salt of (3-amino-6-isopropyl-4,5,6,7-tetrahydro-pyrazolo[3,4-c]pyridin-2-yl)(6-fluoro-1,2,3,4-tetrahydro-quinolin-4-yl)methanone]
5 | 160 | 70000 | Nc1c2c(nn1C(=O)C1CCNc3ccc(F)cc31)COCC2 (stereo not drawn) [Example 194, (3-amino-4,5-dihydropyrano[3,4-c]pyrazol-2(7H)-yl)(6-fluoro-1,2,3,4-tetrahydro-quinolin-4-yl)methanone]
6 | 30 | > 75000 | CCN1CCc2c(nn(C(=O)[C@H]3CCNc4ccc(F)cc43)c2N)C1 (single isomer, unassigned) [Example 165, (S*)-(3-amino-6-ethyl-4,5,6,7-tetrahydro-pyrazolo[3,4-c]pyridin-2-yl)(6-fluoro-1,2,3,4-tetrahydro-quinolin-4-yl)methanone]
7 | 60 | 20000 | CS(=O)(=O)N1CCc2c(nn(C(=O)C3CCNc4ccc(F)cc43)c2N)C1 (single isomer, unassigned) [Example 16, (3-amino-6-(methylsulfonyl)-4,5,6,7-tetrahydropyrazolo[3,4-c]pyridin-2-yl)(6-fluoro-1,2,3,4-tetrahydroquinolin-4-yl)methanone]
8 | 200 | 40000 | Nc1c2c(nn1C(=O)C1CCNc3ccc(F)cc31)CN(S(=O)(=O)CC(F)F)CC2 (stereo not drawn) [Example 142, (3-amino-6-(2,2-difluoroethyl-sulfonyl)-4,5,6,7-tetrahydro-pyrazolo[3,4-c]pyridin-2-yl)(6-fluoro-1,2,3,4-tetrahydro-quinolin-4-yl)methanone]
9 | 30 | > 100000 | CCN1CCc2c(nn(C(=O)C3CCNc4ccc(F)cc43)c2N)C1 (stereo not drawn) [Example 163, (3-amino-6-ethyl-4,5,6,7-tetrahydro-pyrazolo[3,4-c]pyridin-2-yl)(6-fluoro-1,2,3,4-tetrahydro-quinolin-4-yl)methanone]

More lines, now with the values behind:

Row | SMILES | IC50 (Human FXIIa) [nM] | IC50 (Human alpha-thrombin) [nM]
10 | Cc1cccc2c1NCCC2C(=O)n1nc2c(c1N)CCN(S(C)(=O)=O)C2 (stereo not drawn) [Example 34, (3-amino-6-(methylsulfonyl)-4,5,6,7-tetrahydropyrazolo[3,4-c]pyridine-2-yl)(8-methyl-1,2,3,4-tetrahydroquinolin-4-yl)methanone] | 40 | 23000
11 | CCc1cc(C)c2c(c1)C(C(=O)n1nc3c(c1N)CCN(S(C)(=O)=O)C3)CCN2 (single isomer, unassigned) [Example 69, (3-amino-6-(methylsulfonyl)-4,5,6,7-tetrahydropyrazolo[3,4-c]pyridin-2-yl)((S*)-6-ethyl-8-methyl-1,2,3,4-tetrahydroquinolin-4-yl)methanone] | 10 | 40000
12 | Nc1c2c(nn1C(=O)C1CCNc3ccccc31)CN(C(=O)c1ccccc1)CC2 (stereo not drawn) [Example 109, (3-amino-2-(1,2,3,4-tetrahydro-quinoline-4-carbonyl)-4,5-dihydro-2H-pyrazolo[3,4-c]pyridin-6(7H)-yl)(phenyl)-methanone] | 800 | > 75000
13 | CS(=O)(=O)N1CCc2c(nn(C(=O)C3CCNc4ccc(-c5ccccc5)cc43)c2N)C1 (stereo not drawn) [Example 49, (3-amino-6-(methylsulfonyl)-4,5,6,7-tetrahydropyrazolo[3,4-c]pyridin-2-yl)(6-phenyl-1,2,3,4-tetrahydroquinolin-4-yl)methanone] | 11000 | 17000
14 | CS(=O)(=O)N1CCc2c(nn(C(=O)[C@H]3CCNc4ccccc43)c2N)C1 (single isomer, unassigned) [Example 135, (S*)-(3-amino-6-(methylsulfonyl)-4,5,6,7-tetrahydro-pyrazolo[3,4-c]pyridin-2-yl)(1,2,3,4-tetrahydro-quinolin-4-yl)methanone] | 80 | 28000
15 | CC(C)S(=O)(=O)N1CCc2c(N)nn(C(=O)C3CCNc4ccccc43)c2C1 (stereo not drawn) [Example 128, (3-amino-6-(isopropyl-sulfonyl)-4,5,6,7-tetrahydro-pyrazolo[3,4-c]pyridin-1-yl)(1,2,3,4-tetrahydro-quinolin-4-yl)methanone] | 28000 | > 65000
16 | CC(C)S(=O)(=O)N1CCc2c(nn(C(=O)C3CCNc4ccccc43)c2N)C1 (stereo not drawn) [Example 127, (3-amino-6-(isopropyl-sulfonyl)-4,5,6,7-tetrahydro-pyrazolo[3,4-c]pyridin-2-yl)(1,2,3,4-tetrahydro-quinolin-4-yl)methanone] | 200 | > 70000
17 | COC(=O)N1CCc2nn(C(=O)C3CCNc4ccccc43)c(N)c2C1 (stereo not drawn) [Example 87, methyl 3-amino-2-(1,2,3,4-tetrahydro-quinoline-4-carbonyl)-6,7-dihydro-2H-pyrazolo[4,3-c]pyridine-5(4H)-carboxylate] | 800 | > 100000
18 | CCc1cc(C)c2c(c1)C(C(=O)n1nc3c(c1N)CCN(S(C)(=O)=O)C3)CCN2 (stereo not drawn) [Example 55, (3-amino-6-(methylsulfonyl)-4,5,6,7-tetrahydropyrazolo[3,4-c]pyridin-2-yl)(6-ethyl-8-methyl-1,2,3,4-tetrahydroquinolin-4-yl)methanone] | 40 | > 70000
19 | CCN1CCc2nn(C(=O)C3CCNc4ccccc43)c(N)c2C1 (stereo not drawn) [Example 93, (3-amino-5-ethyl-4,5,6,7-tetrahydro-pyrazolo[4,3-c]pyridin-2-yl)(1,2,3,4-tetrahydro-quinolin-4-yl)methanone] | 1300 | > 100000
20 | CCN1CCc2c(nn(C(=O)[C@H]3CCNc4c(C)cc(F)cc43)c2N)C1 (single isomer, unassigned) [Example 170, (S*)-(3-amino-6-ethyl-4,5,6,7-tetrahydro-pyrazolo[3,4-c]pyridin-2-yl)(6-fluoro-8-methyl-1,2,3,4-tetrahydro-quinolin-4-yl)methanone] | 10 | > 90000
21 | Cc1cccc2c1NCC[C@@H]2C(=O)n1nc2c(c1N)CCNC2 (single isomer, unassigned) [Example 176, (S*)-(3-amino-4,5,6,7-tetrahydro-pyrazolo[3,4-c]pyridin-2-yl)(8-methyl-1,2,3,4-tetrahydro-quinolin-4-yl)methanone] | 100 | > 90000
